Results as given in patent US6083941A, “Inhibition of NMDA receptor activity by pregnenolone sulfate derivatives” (Trustees of Boston University, priority 1998, dated 2000).
Several values for one entry are separate records, joined by “and”; a condition that tells them apart may be missing. Identical values can stand only once. Counter-ions that a name gives are not always drawn.

Legend:
AMPA receptors = experiment: Whole cell patch clamp, AMPA-induced current in cultured chick spinal cord neurons; type: cell-based; settings: 100 μM steroid; -70 mV; sulfate
Description: (§1) Cultures of dissociated spinal cord neurons were prepared as previously described (Farb, D. H., et al., J. Cell Biol., 80:651-661 (1979)). Briefly, the dissociated cells from 7-day chick embryos were plated on collagen-coated 35-mm tissue culture dishes in Eagle's minimum essential medium supplemented with 2.4 mM glutamine, 10% (v/v) heat-inactivated horse serum, 5% (v/v) chick embryo extract and antibiotics. Cultures were maintained in a humidified atmosphere of 5% CO2, 95% air at 37°. Cytarabine (1 μM) was added to the culture medium after 36 hr. of the initial plating to inhibit the proliferation of non-neuronal cells. One day later, this medium was replaced with a similar medium supplemented with 20.5 mM glucose, 19 mM KCl, and 2.5% chick embryo extract. Fresh medium was added twice weekly. Cultured neurons were used in experiments within 2-4 weeks after plating.
(§2) Experiments were carried out in 35-mm tissue culture dishes on the stage of an inverted phase contrast microscope. Whole cell currents were recorded by the whole cell variant of the patch clamp technique (Hamill, O. P., et al., Pfagers Arch. 891:85-100 (1981)). Patch electrodes had tip openings of about […] and resistances of 3-8 M.OMEGA. using an intracellular solution comprised of the following (in mM): 140 CsCl, 11 EGTA, and 10 HEPES (pH adjusted to 7.2 with CsOH). […]

kainate receptors = experiment: Whole cell patch clamp, kainate-induced current in cultured chick spinal cord neurons; type: cell-based; settings: 100 μM steroid; -70 mV; sulfate
Description: as §1, §2

[1] = test system: focal cerebral ischemia (MCA occlusion) in rats; experiment: Middle cerebral artery occlusion cerebral ischemia test; type: in vivo; settings: for cortical infarct volume: treatment delayed until 30 min. after initiation of ischemia
Description: Male Wistar rats (200-250 g) were used. Anesthesia was induced with 3% halothane in 70% nitrogen balanced with oxygen. Rats were intubated and artificially ventilated with 2% halothane in a mixture of 30% oxygen and 70% nitrogen. Body temperature was maintained at 37.5° C. during surgery by means of a warming pad with a rectal probe connected to a feedback control unit. Both common carotid arteries (CCA) were isolated, and a loose silk ligature was placed around each artery. A vertical skin incision was made between the left orbit and the auditory canal. Under constant saline irrigation the posterior part of the zygoma was removed and a small opening (2.0/2.5 mm) drilled dorso-rostrally to the foramen ovale. The dura was opened with a microsurgical hook and the brain gently retracted with a small spatula to expose the bifurcation of the internal carotid artery and middle cerebral artery. After permanent ligation of the ipsilateral CCA, the middle cerebral artery (MCA) was coagulated from its origin to the olfactory tract. The contralateral CCA was occluded for a period of 2 hours. A bolus intravenous injection (1 ml) of test compound dissolved in 5% DMSO, 10% 2-hydroxy propyl-β-cyclodextrin in 100 mM sodium phosphate buffer, pH 7.4, was given either immediately after MCA occlusion or 30 minutes after MCA occlusion. An intravenous infusion of the test drug in the same vehicle was initiated immediately after the bolus injection. Twenty-two hours after MCA occlusion rats were euthanized, and the brains were sectioned into 2 mm slices and stained with tetrazoliumred (2,3,5-triphenyl tetrazolium chloride). Areas of brain damage were assessed using an image analyzer with the NIH Image program, and the volumes of cortical and subcortical infarction were estimated by integration of areas in serial.
Pregnanolone hemisuccinate produced significant neuroprotection in the MCAO cerebral ischemia model. […] Focal cerebral ischemia was induced in the left hemisphere of male rats by proximal coagulation of the middle cerebral artery. In addition, the ipsilateral common carotid artery was permanently occluded and the contralateral common carotid artery was occluded for 2 h. Five minutes after initiation of ischemia, rats were injected with an i.v. loading dose of 6.9 mg/kg 5β3αHS, followed by i.v. infusion of 5β3αHS at 6.9 mg/kg/h. […] Control rats were treated with vehicle. Infusion of 5β3αHS was continued for an additional 20 h, at which time the rats were sacrificed, and their brains were sliced and stained with the vital stain 2,3,5 triphenyl tetrazolium Cl.

[2] = test system: formalin pain in the mouse; experiment: Formalin paw lick analgesic test; type: in vivo; settings: mice, i.p., 15 mg/kg
Description: Male CD-1 mice (Charles River laboratories, Wilmington, Mass.) weighing 20-25 g were used for the formalin test. Mice were injected intraperitoneally with the test compound dissolved in DMSO or with vehicle. Five minutes later 20 μl of 1% formalin was injected into the hind paw of each mouse. The time spent licking the injected paw was monitored for 25 minutes. The early phase of response was between 0-5 minutes and the late phase response was defined as the response between 5-25 minutes.

[3] = i.v. 6.9 mg/kg loading dose then 6.9 mg/kg/h, started 5 min. after onset of ischemia, versus vehicle

Row | Compound | inhibition of the 25 μM AMPA-induced current (AMPA receptors) | inhibition of the 50 μM kainate-induced current (kainate receptors) | sedation ([1]; i.v. 6.9 mg/kg loading dose then 6.9 mg/kg/h) | reduction in cortical infarct volume [1, 3] [%] | reduction in subcortical infarct volume [1, 3] [%] | cortical infarct volume [1] | cortical infarct volume ([1]; listed as Pregnanolone hemisuccinate) | infarction volumes of the cortical and subcortical brain regions ([1]; treatment immediately after cerebral ischemia) | early phase response, formalin paw lick ([2]; 0-5 minutes) | late phase response, formalin paw lick ([2]; 5-25 minutes)
1 | CC(=O)[C@H]1CC[C@H]2[C@@H]3CC[C@@H]4C[C@H](OS(=O)(=O)O)CC[C@]4(C)[C@H]3CC[C@]12C [5β3αS, 3α-hydroxy-5β-pregnan-20-one sulfate] | 29% and 29.0±3.1% | 37% and 37.4±4.7% | – | – | – | – | – | – | – | –
2 | CC(=O)[C@H]1CC[C@H]2[C@@H]3CC[C@@H]4C[C@H](OC(=O)CCC(=O)O)CC[C@]4(C)[C@H]3CC[C@]12C [5β3αHS, 3α-hydroxy-5β-pregnan-20-one hemisuccinate] | – | – | Little or no sedation | 47±10 | 26±6 | significantly reduced | significantly decreased | significantly decreased | no effect on the early response | effective in blocking the late phase response
